For 45 compounds, IC50 results are on record in patent US20250195483A1, “SPIRO PIPERIDINE DERIVATIVES AS INHIBITORS OF APOL1 AND METHODS OF USING SAME” (Vertex Pharmaceuticals Incorporated, priority 2022, published 2025).

Each structure is given as a SMILES string.

This test concerns the target T1, APOL1 (Homo sapiens, UniProt O14791).
T1 sequence (O14791 1-398): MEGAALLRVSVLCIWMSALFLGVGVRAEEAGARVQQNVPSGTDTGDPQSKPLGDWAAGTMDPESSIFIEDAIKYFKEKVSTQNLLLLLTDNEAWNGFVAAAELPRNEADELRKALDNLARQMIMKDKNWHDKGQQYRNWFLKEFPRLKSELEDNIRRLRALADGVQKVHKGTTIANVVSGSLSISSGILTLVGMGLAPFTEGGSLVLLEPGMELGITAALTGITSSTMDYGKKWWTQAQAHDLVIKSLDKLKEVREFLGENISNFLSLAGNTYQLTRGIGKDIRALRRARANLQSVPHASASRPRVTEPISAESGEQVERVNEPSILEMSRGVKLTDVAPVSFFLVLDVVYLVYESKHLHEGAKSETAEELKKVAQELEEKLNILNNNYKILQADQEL
Put plainly: MultiTox-Fluor Multiplex Cytotoxicity Assay, tet-inducible APOL1 T-REx-HEK293 cells (G0, G1 or G2 clone not specified for Table 20). It is filed as cell-based. The following applies: tet-induced, 24 hours with compound, ratio of dead to live cells, read-out: IP50 (i.e., IC50 for cell proliferation). The gist of the method:
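HEK293 T-REx cells with tet-inducible APOL1 G0, G1 or G2 clone, 23,400/well, treated with tetracycline plus compound (top 10 μM, 10-point 3-fold, duplicate) for 24 h at 37° C. MultiTox-Fluor dead/live fluorescence ratio, normalized to no-tet (100% viability) and 50 ng/mL tet (0% viability) controls, then curve-fitted.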
Consider `C[C@H]1C[C@@]2(CCN1Cc1cn(CC3(O)CCOC3)nn1)OCCc1ccc(Cl)cc12` (stereo partly drawn) [Compound 149], for which the IC50 was at most 50 nM.

`C[C@H]1C[C@@]2(CCN1Cc1cn(C3CN(S(C)(=O)=O)C3)nn1)OCCc1ccc(Cl)cc12` [Compound 150]: the IC50 is at most 50 nM.

In the case of `C[C@H]1C[C@@]2(CCN1Cc1cn(C(CO)CO)nn1)OCCc1ccc(Cl)cc12` [Compound 151], the IC50 was at least 500 nM.

For the compound `C[C@H]1C[C@@]2(CCN1Cc1cn(CC(O)CO)nn1)OCCc1ccc(Cl)cc12` (stereo partly drawn) [Compound 152], the IC50 is at most 50 nM.

For `C[C@H]1C[C@@]2(CCN1Cc1cn(C(C)(CO)CO)nn1)OCCc1ccc(Cl)cc12` [Compound 153], the IC50 is at least 500 nM.

In the case of `CCn1cc(CN2CC[C@]3(C[C@@H]2C)OCCc2ccc(Cl)cc23)nn1` [Compound 154], the IC50 fell in the range of 50 to 500 nM.

Consider `COCn1cc(CN2CC[C@]3(C[C@@H]2C)OCCc2ccc(Cl)cc23)nn1` [Compound 155], for which the IC50 fell in the range of 50 to 500 nM.

On to `C[C@H]1C[C@@]2(CCN1Cc1cn(CC(O)C(C)(C)O)nn1)OCCc1ccc(Cl)cc12` (stereo partly drawn) [Compound 156], for which the IC50 is at most 50 nM.

Regarding `C[C@H]1C[C@@]2(CCN1Cc1cn(CC(O)C(C)(C)O)nn1)OCCc1ccc(Cl)cc12` (stereo partly drawn) [Compound 157], the IC50 is at most 50 nM.

Take `C[C@H]1C[C@@]2(CCN1Cc1cn(CC(C)(C)CS(N)(=O)=O)nn1)OCCc1ccc(Cl)cc12` [Compound 158]: the IC50 is at most 50 nM.

For the compound `Cc1ccc(NCCn2cc(CN3CC[C@]4(C[C@@H]3C)OCCc3ccc(Cl)cc34)nn2)nn1` [Compound 159], the IC50 lay within 50 to 500 nM.

With `C[C@H]1C[C@@]2(CCN1Cc1cn(CCCc3nc(=O)[nH][nH]3)nn1)OCCc1ccc(Cl)cc12` [Compound 160], the IC50 is 50 to 500 nM.

With `CCc1nnc(Cn2cc(CN3CC[C@]4(C[C@@H]3C)OCCc3ccc(Cl)cc34)nn2)o1` [Compound 161], the IC50 is at most 50 nM.

For `CNc1cnc(Cn2cc(CN3CC[C@]4(C[C@@H]3C)OCCc3ccc(Cl)cc34)nn2)cn1` [Compound 162], the IC50 was in the range of 50 to 500 nM.

As to `C[C@H]1C[C@@]2(CCN1Cc1cn(Cc3cc(=O)[nH]c(C4CC4)n3)nn1)OCCc1ccc(Cl)cc12` [Compound 163], the IC50 lay in the range of 50 to 500 nM.

Consider `C[C@H]1C[C@@]2(CCN1Cc1cn(Cc3nc(CO)cs3)nn1)OCCc1ccc(Cl)cc12` [Compound 164], for which the IC50 fell in the range of 50 to 500 nM.

As for `Cc1nc(Cn2cc(CN3CC[C@]4(C[C@@H]3C)OCCc3ccc(Cl)cc34)nn2)sc1C(N)=O` [Compound 165], the IC50 was at most 50 nM.

With `C[C@H]1C[C@@]2(CCN1Cc1cn(Cc3cnn4c3C(=O)N(C)CC4)nn1)OCCc1ccc(Cl)cc12` [Compound 166], the IC50 is 50 to 500 nM.

Take `C[C@H]1C[C@@]2(CCN1Cc1cn(CC(C)(C)NS(C)(=O)=O)nn1)OCCc1ccc(Cl)cc12` [Compound 167]: the IC50 is at most 50 nM.

For `Cc1n[nH]c(C(F)(F)Cn2cc(CN3CC[C@]4(C[C@@H]3C)OCCc3ccc(Cl)cc34)nn2)n1` [Compound 168], the IC50 is 50 to 500 nM.

Regarding `CC(C)n1cc(Cn2cc(CN3CC[C@]4(C[C@@H]3C)OCCc3ccc(Cl)cc34)nn2)c(=O)[nH]c1=O` [Compound 169], the IC50 was at most 50 nM.

Consider `Cc1nn(CCO)cc1Cn1cc(CN2CC[C@]3(C[C@@H]2C)OCCc2ccc(Cl)cc23)nn1` [Compound 170], for which the IC50 was at most 50 nM.

For the compound `C[C@H]1C[C@@]2(CCN1Cc1cn(CC(=O)NCC3(C#N)CC3)nn1)OCCc1ccc(Cl)cc12` [Compound 171], the IC50 is at most 50 nM.

For the compound `C[C@H]1C[C@@]2(CCN1Cc1cn(Cc3ccc(C(N)=O)o3)nn1)OCCc1ccc(Cl)cc12` [Compound 172], the IC50 is at most 50 nM.

On to `CCNC(=O)NCCn1cc(CN2CC[C@]3(C[C@@H]2C)OCCc2ccc(Cl)cc23)nn1` [Compound 173], for which the IC50 was at most 50 nM.

Turning to `Cc1ccc(Cn2cc(CN3CC[C@]4(C[C@@H]3C)OCCc3ccc(Cl)cc34)nn2)c(=O)[nH]1` [Compound 174], the IC50 lay in the range of 50 to 500 nM.

As to `C[C@H]1C[C@@]2(CCN1Cc1cn(CC3(CC(N)=O)CC3)nn1)OCCc1ccc(Cl)cc12` [Compound 175], the IC50 is at most 50 nM.

Regarding `C[C@H]1C[C@@]2(CCN1Cc1cn(Cc3nccn(C)c3=O)nn1)OCCc1ccc(Cl)cc12` [Compound 176], the IC50 fell in the range of 50 to 500 nM.

As for `C[C@H]1C[C@@]2(CCN1Cc1cn(Cc3ncc4c(n3)CCOC4)nn1)OCCc1ccc(Cl)cc12` [Compound 177], the IC50 was 50 to 500 nM.

Consider `Cc1nnc(O)c(Cn2cc(CN3CC[C@]4(C[C@@H]3C)OCCc3ccc(Cl)cc34)nn2)c1C` [Compound 178], for which the IC50 lay within 50 to 500 nM.

Regarding `C[C@H]1C[C@@]2(CCN1Cc1cn(CCCn3ccc(=O)[nH]c3=O)nn1)OCCc1ccc(Cl)cc12` [Compound 179], the IC50 is at most 50 nM.

For `Cc1cc(Cn2cc(CN3CC[C@]4(C[C@@H]3C)OCCc3ccc(Cl)cc34)nn2)cc(=O)[nH]1` [Compound 180], the IC50 was 50 to 500 nM.

On to `C[C@H]1C[C@@]2(CCN1Cc1cn(Cc3cn(C4COC4)nn3)nn1)OCCc1ccc(Cl)cc12` [Compound 181], for which the IC50 was at most 50 nM.

Consider `C[C@H]1C[C@@]2(CCN1Cc1cn(Cc3ncc(C(N)=O)s3)nn1)OCCc1ccc(Cl)cc12` [Compound 182], for which the IC50 was at most 50 nM.

For `C[C@H]1C[C@@]2(CCN1Cc1cn(CCc3nccc(=O)[nH]3)nn1)OCCc1ccc(Cl)cc12` [Compound 183], the IC50 is 50 to 500 nM.

In the case of `C[C@H]1C[C@@]2(CCN1Cc1cn(CC3(C(N)=O)CCOCC3)nn1)OCCc1ccc(Cl)cc12` [Compound 184], the IC50 was at most 50 nM.

In the case of `C[C@H]1C[C@@]2(CCN1Cc1cn(Cc3nnc(N(C)C)[nH]3)nn1)OCCc1ccc(Cl)cc12` [Compound 185], the IC50 was 50 to 500 nM.

For `C[C@H]1C[C@@]2(CCN1Cc1cn(CC(=O)Nc3cn[nH]c3)nn1)OCCc1ccc(Cl)cc12` [Compound 186], the IC50 was at most 50 nM.

On to `C[C@H]1C[C@@]2(CCN1Cc1cn(CCNS(=O)(=O)C3CC3)nn1)OCCc1ccc(Cl)cc12` [Compound 187], for which the IC50 is at most 50 nM.

On to `C[C@H]1C[C@@]2(CCN1Cc1cn(CC3(C(N)=O)CC3)nn1)OCCc1ccc(Cl)cc12` [Compound 188], for which the IC50 was at most 50 nM.

As to `C[C@H]1C[C@@]2(CCN1Cc1cn(Cc3cn(C4CC4)c(=O)[nH]c3=O)nn1)OCCc1ccc(Cl)cc12` [Compound 189], the IC50 is at most 50 nM.

In the case of `CNC(=O)C1OC2(CCN(Cc3cnn(-c4ccccc4)c3)CC2)c2ccccc21` (stereo not drawn) [Compound 190, N-methyl-1′-[(1-phenylpyrazol-4-yl)methyl]spiro[1H-isobenzofuran-3,4′-piperidine]-1-carboxamide], the IC50 is at least 500 nM.

Consider `NC(=O)C1OC2(CCN(Cc3cnn(-c4ccccc4)c3)CC2)c2cc(Cl)ccc21` (stereo not drawn) [Compound 191, 5-chloro-1′-[(1-phenylpyrazol-4-yl)methyl]spiro[1H-isobenzofuran-3,4′-piperidine]-1-carboxamide], for which the IC50 is at most 50 nM.

With `O=C(O)C1OC2(CCN(Cc3cnn(-c4ccccc4)c3)CC2)c2cc(Cl)ccc21` (stereo not drawn) [Compound 192, 5-chloro-1′-[(1-phenylpyrazol-4-yl)methyl]spiro[1H-isobenzofuran-3,4′-piperidine]-1-carboxylic acid], the IC50 is at least 500 nM.

As for `CNC(=O)C1OC2(CCN(Cc3cnn(-c4ccccc4)c3)CC2)c2cc(Cl)ccc21` (stereo not drawn) [Compound 195, 5-chloro-N-methyl-1′-[(1-phenylpyrazol-4-yl)methyl]spiro[1H-isobenzofuran-3,4′-piperidine]-1-carboxamide], the IC50 was at most 50 nM.
